Laboratory results: patent US4690920A, “Derivative of cephalosporanic acid and pharmaceutical composition comprising the same” (Kureha Kagaku Kogyo Kabushiki Kaisha, priority 1982, dated 1987)

What was measured:
Escherichia coli = experiment: Effect on the intestinal bacterial colonies: number of Escherichia coli in feces; format: in vivo, Escherichia coli (feces of female ICR mice); conditions: for Log10 value of the number of bacterial cells/g of feces, Escherichia coli: oral, 500 mg/kg/day for 2 days, feces one day after administration, before administration 7.0
Procedure: (§1) After collecting the feces of a group of mice, each of the compounds represented by the formula (I) was orally administered to each of the group for 2 continued days at a daily dose rate of 500 mg per kg body weight, and the feces were again collected one day after the administration. Each portion of the thus collected, two kinds of the feces was cultured at 25° C. or 37° C. in a variety of culture media for one to five days to see the state of growth of the following bacteria which are present habitually in the intestine of the mouse: Escherichia coli, Pseudomonas aeruginosa, a streptococcus bacterial species, a lactobacillis bacteria, Lactobacillus bifidus and a bacterioides bacteria.
(§2) Each of the compounds, respectively produced in Examples 1 to 6 was orally administered for two continued days at a daily dosage of 500 mg/kg body weight to each of five female ICR mice of a group after 6 weeks of birth.
(§3) Each of the two fecal specimens respectively collected before and after one day of the administration was diluted with 100 times by weight of an anaerobic diluent (a phosphoric buffer solution) and was ground in a mortar, and 0.1 ml of the ground material was smeared on each of the following culture media for the following bacteria and the thus inoculated culture media were incubated under the following conditions. Thereafter, the number of the following bacteria was determined on each culture medium.
DHL agar 37° C., for 1 day, […]

Pseudomonas aeruginosa = experiment: Effect on the intestinal bacterial colonies: number of Pseudomonas aeruginosa in feces; format: in vivo, Pseudomonas aeruginosa (feces of female ICR mice); conditions: oral, 500 mg/kg/day for 2 days; feces one day after administration; before administration <3.0
Procedure: as §1, §2, §3
NAC agar 37° C., for 1 day, […]

[1] = tested on: A species of Streptococcus; experiment: Effect on the intestinal bacterial colonies: number of a species of Streptococcus in feces; format: in vivo, Streptococcus (feces of female ICR mice); conditions: oral, 500 mg/kg/day for 2 days; feces one day after administration; before administration 6.4
Procedure: as §1, §2, §3
a species of TATAC agar 37° C., for 1 day, […]

[2] = tested on: A species of Lactobacillus; experiment: Effect on the intestinal bacterial colonies: number of a species of Lactobacillus in feces; format: in vivo, Lactobacillus (feces of female ICR mice); conditions: for Log10 value of the number of bacterial cells/g of feces, a species of Lactobacillus: oral, 500 mg/kg/day for 2 days, feces one day after administration, before administration 9.0
Procedure: as §1, §2, §3
a species of LBS agar 37° C., for 5 days, […]

Lactobacillus bifidus = experiment: Effect on the intestinal bacterial colonies: number of Lactobacillus bifidus in feces; format: in vivo, Lactobacillus bifidus (feces of female ICR mice); conditions: oral, 500 mg/kg/day for 2 days; feces one day after administration; before administration 8.0
Procedure: as §1, §2, §3
BS agar 37° C., for 5 days, […]

[3] = tested on: A species of Bacterioides; experiment: Effect on the intestinal bacterial colonies: number of a species of Bacterioides in feces; format: in vivo, Bacteroides (feces of female ICR mice); conditions: oral, 500 mg/kg/day for 2 days; feces one day after administration; before administration 8.1
Procedure: as §1, §2, §3
a species of NBGT agar 37° C., for 5 days,7 -Bacteroides anaer

[4] = tested on: Escherichia coli IFO 12734; experiment: Anti-bacterial activity, agar plate dilution method (MIC), Escherichia coli; format: cell-based; conditions: 18 to 24 hours, 37° C.; for Minimum concentration of inhibiting growth of Escherichia coli (MIC): Mueller-Hinton agar; for MIC: IFO12734, Mueller-Hinton agar, read-out: Minimum concentration of inhibiting growth of Escherichia coli (MIC)
Procedure: (§4) 3-1: The minimum growth-inhibiting concentration (MIC) of each of the compounds represented by the formula (I) was measured according to the standard procedures of Japan Society of Chemotherapy against each of the following bacterial species:
Escherichia coli, IFO 12734 and
(§5) Anti-bacterial activity of each of the compounds produced in Examples 1 to 6 was measured according to the standard procedures of Japan Society of Chemotherapy in agar plate dilution method as follows:
(§6) As a test bacterial species, Escherichia coli IFO 12734 and Staphylococcus aureus IAM 1011, and each strain was inoculated into Mueller-Hinton's culture medium for 18 to 48 hours at 37° C., and while using the thus cultured bacteria, each of the test bacterial liquid containing 10^6 cells in one ml was prepared.
(§7) Separately, after preparing each series of diluted aqueous solutions of each of the compounds produced in Examples 1 to 6, respectively, each of them was mixed in amount of 1/9 time by weight with the Mueller-Hinton's culture medium and each flat agar culture plate was prepared by using the thus formed mixture.

[5] = tested on: Staphylococcus aureus IAM 1011; experiment: Anti-bacterial activity, agar plate dilution method (MIC), Staphylococcus aureus; format: cell-based; conditions: 18 to 24 hours, 37° C.; for Minimum concentration of inhibiting growth of Staphylococcus aureus (MIC): Mueller-Hinton agar; for MIC: IAM1011, Mueller-Hinton agar, read-out: Minimum concentration of inhibiting growth of Staphylococcus aureus (MIC)
Procedure: as §4
Staphylococcus aureus, IAM 1011
as §5, §6, §7

[6] = tested on: Staphylococcus aureus IAM 1011; experiment: Model test for verifying the activation in living body: growth-inhibition circle with/without rat liver S-9 mix; format: cell-based; conditions: 20 min at 37° C., then 18 hours at 37° C.; for Sign: diameter of growth-inhibiting circle as percentage of that due to compound of formula (II), with the addition of S-9 mix: with the addition of S-9 mix (rat liver homogenate)
Procedure: On each flat culture plate prepared by adding 10^8 cells/ml of a preliminarily cultured Staphylococcus aureus IAM 1011 into 50 times by weight of Mueller-Hinton's agar culture medium, a penicillin cup of 8 mm in diameter was placed, and into each cup 0.1 ml of each of the compounds represented by the formula (I) or 0.1 ml of a cultured product of each of the compounds represented by the formula (I) together with a rat liver homogenate (containing a metabolism-activating enzyme, referred to as S-9 mix) was introduced. The diameter of each growth-inhibition circle formed around the cup after incubating the flat culture plate with the cup for 18 hours at 37° C. was measured, and the thus obtained value was compared to the value obtained by the same procedures except for using the compound represented by the formula (II), the starting compound instead of each of the compounds represented by the formula (I).
As a metabolism-activating enzyme, a rat liver homogenate (S-9, manufactured by Oriental Yeast Co.) was used in the following composition (referred to as S-9 mix, hereinafter):
After mixing 0.1 ml of a solution of the compound to be tested with 0.9 ml of S-9 mix or 0.9 ml of 0.1M phosphoric acid buffer solution, the mixture was subjected to shaking culture for 20 min at 37° C. to prepare a test reaction solution for use in the following experiment.
Staphylococcus aureus IAM 1011 was inoculated to Mueller-Hinton's culture medium and the inoculum was cultured for 18 hours at 37° C. and after adjusting the number of the bacterial cells to 10^8 /ml of the culture medium, 50 times by weight of the Mueller-Hinton's agar culture medium were added to the cultured medium to prepare flat culture plates.
After placing a penicillin-cup of 8 mm in diameter on each of the thus prepared flat culture plates, 0.1 ml of the above-mentioned test reaction solution was introduced into the penicillin-cup, and after leaving the system for 2 hours at 4° C., the system was incubated for 18 hour at 37° C., and the diameter of the growth-inhibition circle around the cup on the culture plate was determined.
The thus obtained diameter of the growth-inhibiting circle due to each of the compounds produced respectively in Examples 1 to 6 was compared to that due to the compound repesente by the formula (II), substituted cephalosporanic acid by percentage, and the following signs were respectively given to the respective compounds as follows: […]

[7] = compared to that before administration

## CO[C@@]1(NC(=O)CSCC#N)C(=O)N2C(C(=O)O)=C(CSc3nnnn3C)CS[C@@H]21 [CEFMETAZOLE, reference compound]
Escherichia coli; [7]
  number of cells of Escherichia coli after administration (in words): showed an increase
Escherichia coli
  Log10 value of the number of bacterial cells/g of feces, Escherichia coli: < 3.0 Log10 cells/g of feces
Pseudomonas aeruginosa
  Log10 value of the number of bacterial cells/g of feces, Pseudomonas aeruginosa: 7.0 Log10 cells/g of feces
[1]
  Log10 value of the number of bacterial cells/g of feces, a species of Streptococcus: < 3.0 Log10 cells/g of feces
[2]; [7]
  number of a certain species of Lactobacillus after administration (in words): showed a reduction
[2]
  Log10 value of the number of bacterial cells/g of feces, a species of Lactobacillus: 4.0 Log10 cells/g of feces
Lactobacillus bifidus
  Log10 value of the number of bacterial cells/g of feces, Lactobacillus bifidus: 3.8 Log10 cells/g of feces
[3]
  Log10 value of the number of bacterial cells/g of feces, a species of Bacterioides: 4.6 Log10 cells/g of feces

## COC1(NC(=O)CSCC#N)C(=O)N2C(C(=O)Nc3ccc(C(=O)O)cc3)=C(CSc3nnnn3C)CSC21 (stereo not drawn) [Example 1, N-(4-carboxyphenyl)-{7-beta-cyanomethylthioacetamido-7-alpha-methoxy-3-[(1-methyl-1H-tetrazol5-yl)thio]methyl-3-cepheme-4-carboxylic}amide]
Escherichia coli
  Log10 value of the number of bacterial cells/g of feces, Escherichia coli: 7.2 Log10 cells/g of feces
Pseudomonas aeruginosa
  Log10 value of the number of bacterial cells/g of feces, Pseudomonas aeruginosa: < 3.0 Log10 cells/g of feces
[1]
  Log10 value of the number of bacterial cells/g of feces, a species of Streptococcus: 6.0 Log10 cells/g of feces
[2]
  Log10 value of the number of bacterial cells/g of feces, a species of Lactobacillus: 8.9 Log10 cells/g of feces
Lactobacillus bifidus
  Log10 value of the number of bacterial cells/g of feces, Lactobacillus bifidus: 8.0 Log10 cells/g of feces
[3]
  Log10 value of the number of bacterial cells/g of feces, a species of Bacterioides: 8.1 Log10 cells/g of feces
[4]
  Minimum concentration of inhibiting growth of Escherichia coli (MIC): ≥ 100 microgram/ml
[5]
  Minimum concentration of inhibiting growth of Staphylococcus aureus (MIC): ≥ 100 microgram/ml
[6]
  Sign: diameter of growth-inhibiting circle as percentage of that due to compound of formula (II), with the addition of S-9 mix: + (1 to 33)
  Sign: diameter of growth-inhibiting circle as percentage of that due to compound of formula (II), without adding S-9 mix: - (0)

## COC(=O)c1ccc(NC(=O)C2=C(CSc3nnnn3C)CSC3N2C(=O)C3(NC(=O)CSCC#N)OC)cc1 (stereo not drawn) [Example 2, N-(4-carbomethoxyphenyl)-{7-beta-cyanomethylthioacetamido-7-alpha-methoxy-3-[(1-methyl-1H-tetrazol-5-yl)thio]methyl-3-cepheme-4-carboxylic}amide]
Escherichia coli
  Log10 value of the number of bacterial cells/g of feces, Escherichia coli: 6.6 Log10 cells/g of feces
Pseudomonas aeruginosa
  Log10 value of the number of bacterial cells/g of feces, Pseudomonas aeruginosa: < 3.0 Log10 cells/g of feces
[1]
  Log10 value of the number of bacterial cells/g of feces, a species of Streptococcus: 6.2 Log10 cells/g of feces
[2]
  Log10 value of the number of bacterial cells/g of feces, a species of Lactobacillus: 9.1 Log10 cells/g of feces
Lactobacillus bifidus
  Log10 value of the number of bacterial cells/g of feces, Lactobacillus bifidus: 8.0 Log10 cells/g of feces
[3]
  Log10 value of the number of bacterial cells/g of feces, a species of Bacterioides: 8.0 Log10 cells/g of feces
[4]
  Minimum concentration of inhibiting growth of Escherichia coli (MIC): ≥ 100 microgram/ml
[5]
  Minimum concentration of inhibiting growth of Staphylococcus aureus (MIC): ≥ 100 microgram/ml
[6]
  Sign: diameter of growth-inhibiting circle as percentage of that due to compound of formula (II), with the addition of S-9 mix: + (1 to 33)
  Sign: diameter of growth-inhibiting circle as percentage of that due to compound of formula (II), without adding S-9 mix: - (0)

## COC(=O)Cc1ccc(NC(=O)C2=C(CSc3nnnn3C)CS[C@H]3N2C(=O)[C@]3(NC(=O)CSCC#N)OC)cc1 [Example 3, N-(4-carbomethoxymethylphenyl)-{7-betacyanomethylthioacetamido-7-alpha-methoxy-3-[(1-methyl-1H-tetrazol-5-yl)thio]methyl-3-cepheme-4-carboxylic}amide]
Escherichia coli
  Log10 value of the number of bacterial cells/g of feces, Escherichia coli: 7.1 Log10 cells/g of feces
Pseudomonas aeruginosa
  Log10 value of the number of bacterial cells/g of feces, Pseudomonas aeruginosa: < 3.0 Log10 cells/g of feces
[1]
  Log10 value of the number of bacterial cells/g of feces, a species of Streptococcus: 6.0 Log10 cells/g of feces
[2]
  Log10 value of the number of bacterial cells/g of feces, a species of Lactobacillus: 9.1 Log10 cells/g of feces
Lactobacillus bifidus
  Log10 value of the number of bacterial cells/g of feces, Lactobacillus bifidus: 7.9 Log10 cells/g of feces
[3]
  Log10 value of the number of bacterial cells/g of feces, a species of Bacterioides: 8.0 Log10 cells/g of feces
[4]
  MIC: ≥ 100 µg/mL
[5]
  MIC: ≥ 100 µg/mL
[6]
  Sign: diameter of growth-inhibiting circle as percentage of that due to compound of formula (II), with the addition of S-9 mix: ± (0 to 1)
  Sign: diameter of growth-inhibiting circle as percentage of that due to compound of formula (II), without adding S-9 mix: - (0)

## CO[C@@]1(NC(=O)CSCC#N)C(=O)N2C(C(=O)Nc3ccc(O)cc3)=C(CSc3nnnn3C)CS[C@@H]21 [Example 5, N-(4-hydroxyphenyl)-{7-beta-cyanomethylthioacetamido-7-alpha-methoxy-3-[(1-methyl-1H-tetrazol-5-yl)thio]methyl-3-cepheme-4-carboxylic}amide]
Escherichia coli
  Log10 value of the number of bacterial cells/g of feces, Escherichia coli: 6.7 Log10 cells/g of feces
Pseudomonas aeruginosa
  Log10 value of the number of bacterial cells/g of feces, Pseudomonas aeruginosa: < 3.0 Log10 cells/g of feces
[1]
  Log10 value of the number of bacterial cells/g of feces, a species of Streptococcus: 6.6 Log10 cells/g of feces
[2]
  Log10 value of the number of bacterial cells/g of feces, a species of Lactobacillus: 9.0 Log10 cells/g of feces
Lactobacillus bifidus
  Log10 value of the number of bacterial cells/g of feces, Lactobacillus bifidus: 8.2 Log10 cells/g of feces
[3]
  Log10 value of the number of bacterial cells/g of feces, a species of Bacterioides: 7.9 Log10 cells/g of feces
[4]
  MIC: ≥ 100 µg/mL
[5]
  MIC: ≥ 100 µg/mL
[6]
  Sign: diameter of growth-inhibiting circle as percentage of that due to compound of formula (II), with the addition of S-9 mix: + (1 to 33)
  Sign: diameter of growth-inhibiting circle as percentage of that due to compound of formula (II), without adding S-9 mix: - (0)
